Reference: doi:10.1101/2021.04.08.439011v1 (biorxiv, 2021)
Where two headings read alike, the source gives them in different places.

Legend:
EGFR(L861Q) = EGFR(L861Q) (Homo sapiens, UniProt P00533, L861Q); settings: 0.1 µM; binder
RAF1 = RAF1 (Homo sapiens, UniProt P04049); settings: 0.1 µM; binder
BMPR1B = BMPR1B (Homo sapiens, UniProt O00238); settings: 0.1 µM; binder
MYO3A = MYO3A (Homo sapiens, UniProt Q8NEV4); settings: 0.1 µM; binder
ULK1 = ULK1 (Homo sapiens, UniProt O75385); settings: 0.1 µM; binder
Sequence of ULK1 (O75385 whole entry): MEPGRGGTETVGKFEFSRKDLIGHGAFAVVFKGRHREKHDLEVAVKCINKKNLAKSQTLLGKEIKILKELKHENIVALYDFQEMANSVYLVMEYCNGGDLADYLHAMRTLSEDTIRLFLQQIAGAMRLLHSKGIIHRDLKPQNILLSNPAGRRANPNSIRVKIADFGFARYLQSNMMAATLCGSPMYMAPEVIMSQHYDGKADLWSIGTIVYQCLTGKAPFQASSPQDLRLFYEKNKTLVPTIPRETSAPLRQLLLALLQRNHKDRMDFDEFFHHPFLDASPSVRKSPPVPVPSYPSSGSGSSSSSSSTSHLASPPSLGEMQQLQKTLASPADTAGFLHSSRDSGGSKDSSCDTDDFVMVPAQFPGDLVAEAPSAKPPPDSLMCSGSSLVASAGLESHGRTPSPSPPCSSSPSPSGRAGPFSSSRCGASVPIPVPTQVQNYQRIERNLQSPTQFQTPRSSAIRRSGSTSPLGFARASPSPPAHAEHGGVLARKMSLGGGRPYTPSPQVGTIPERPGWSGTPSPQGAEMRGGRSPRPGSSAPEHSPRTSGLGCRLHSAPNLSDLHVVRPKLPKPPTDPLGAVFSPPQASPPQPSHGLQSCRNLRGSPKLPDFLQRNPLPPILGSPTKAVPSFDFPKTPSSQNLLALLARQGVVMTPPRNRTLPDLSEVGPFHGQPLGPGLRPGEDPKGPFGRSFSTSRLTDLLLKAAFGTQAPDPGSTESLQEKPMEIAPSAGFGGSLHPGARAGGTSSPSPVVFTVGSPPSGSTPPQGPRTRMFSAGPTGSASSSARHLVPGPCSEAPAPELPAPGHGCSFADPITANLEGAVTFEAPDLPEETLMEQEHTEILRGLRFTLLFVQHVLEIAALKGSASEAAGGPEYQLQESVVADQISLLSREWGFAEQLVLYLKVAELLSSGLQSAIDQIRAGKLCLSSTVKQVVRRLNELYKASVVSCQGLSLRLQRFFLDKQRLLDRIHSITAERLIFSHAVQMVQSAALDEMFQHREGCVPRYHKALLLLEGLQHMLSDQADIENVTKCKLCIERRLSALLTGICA

MST3 = MST3 (Homo sapiens, UniProt Q9Y6E0); settings: 0.1 µM; binder
Sequence of MST3 (Q9Y6E0 whole entry): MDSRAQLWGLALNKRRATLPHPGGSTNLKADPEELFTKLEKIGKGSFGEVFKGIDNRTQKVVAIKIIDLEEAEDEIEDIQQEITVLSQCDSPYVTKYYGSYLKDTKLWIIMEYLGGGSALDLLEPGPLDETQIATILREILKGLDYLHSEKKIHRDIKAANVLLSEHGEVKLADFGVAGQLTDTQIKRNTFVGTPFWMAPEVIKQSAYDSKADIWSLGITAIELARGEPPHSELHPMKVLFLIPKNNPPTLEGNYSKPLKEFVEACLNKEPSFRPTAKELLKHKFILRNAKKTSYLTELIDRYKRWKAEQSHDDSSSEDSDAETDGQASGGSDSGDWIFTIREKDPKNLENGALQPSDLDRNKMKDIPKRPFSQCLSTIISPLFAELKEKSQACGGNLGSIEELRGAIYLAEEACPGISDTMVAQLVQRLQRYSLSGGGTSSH

ERBB3 = ERBB3 (Homo sapiens, UniProt P21860); settings: 0.1 µM; binder
JNK2 = JNK2 (Homo sapiens, UniProt P45984); settings: 0.1 µM; binder
MLK3 = MLK3 (Homo sapiens, UniProt Q16584); settings: 0.1 µM; binder
PIK3CB = PIK3CB (Homo sapiens, UniProt P42338); settings: 0.1 µM; binder
Sequence of PIK3CB (P42338 whole entry): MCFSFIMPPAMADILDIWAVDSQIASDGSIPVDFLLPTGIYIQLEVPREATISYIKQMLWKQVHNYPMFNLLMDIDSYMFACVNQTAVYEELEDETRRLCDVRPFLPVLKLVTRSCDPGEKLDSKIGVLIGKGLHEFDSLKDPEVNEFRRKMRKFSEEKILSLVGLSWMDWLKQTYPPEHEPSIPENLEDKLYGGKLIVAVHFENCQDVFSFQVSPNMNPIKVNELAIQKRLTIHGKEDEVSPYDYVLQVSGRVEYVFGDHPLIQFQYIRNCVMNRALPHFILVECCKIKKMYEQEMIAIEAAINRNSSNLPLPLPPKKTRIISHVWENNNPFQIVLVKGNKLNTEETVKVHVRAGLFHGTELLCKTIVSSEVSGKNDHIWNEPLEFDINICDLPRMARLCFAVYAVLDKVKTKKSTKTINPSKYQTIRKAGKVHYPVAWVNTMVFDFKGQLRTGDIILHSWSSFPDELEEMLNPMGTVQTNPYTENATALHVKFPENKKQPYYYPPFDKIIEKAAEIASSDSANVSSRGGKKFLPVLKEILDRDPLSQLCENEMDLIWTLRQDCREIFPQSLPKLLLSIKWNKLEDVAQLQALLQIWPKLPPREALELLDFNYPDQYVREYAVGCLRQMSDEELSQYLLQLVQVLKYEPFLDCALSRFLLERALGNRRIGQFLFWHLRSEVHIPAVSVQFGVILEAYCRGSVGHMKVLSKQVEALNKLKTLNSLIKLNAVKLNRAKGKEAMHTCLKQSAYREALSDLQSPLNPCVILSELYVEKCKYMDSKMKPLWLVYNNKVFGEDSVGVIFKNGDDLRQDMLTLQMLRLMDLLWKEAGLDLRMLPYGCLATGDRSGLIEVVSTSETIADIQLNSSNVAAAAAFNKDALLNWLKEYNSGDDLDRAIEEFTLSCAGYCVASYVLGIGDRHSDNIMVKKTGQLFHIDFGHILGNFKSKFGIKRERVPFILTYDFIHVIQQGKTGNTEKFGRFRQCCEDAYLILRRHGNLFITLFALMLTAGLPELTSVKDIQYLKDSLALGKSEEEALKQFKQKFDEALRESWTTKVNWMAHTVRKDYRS

BRAF(V600E) = BRAF(V600E) (Homo sapiens, UniProt P15056, V600E); settings: 0.1 µM; binder
IGF1R = IGF1R (Homo sapiens, UniProt P08069); settings: 0.1 µM; binder
MYLK3 = MYLK3 (Homo sapiens, UniProt Q32MK0); settings: 0.1 µM; binder
CDK7 = CDK7 (Homo sapiens, UniProt P50613); settings: 0.1 µM; binder
BMPR2 = BMPR2 (Homo sapiens, UniProt Q13873); settings: 0.1 µM; binder
Sequence of BMPR2 (Q13873 whole entry): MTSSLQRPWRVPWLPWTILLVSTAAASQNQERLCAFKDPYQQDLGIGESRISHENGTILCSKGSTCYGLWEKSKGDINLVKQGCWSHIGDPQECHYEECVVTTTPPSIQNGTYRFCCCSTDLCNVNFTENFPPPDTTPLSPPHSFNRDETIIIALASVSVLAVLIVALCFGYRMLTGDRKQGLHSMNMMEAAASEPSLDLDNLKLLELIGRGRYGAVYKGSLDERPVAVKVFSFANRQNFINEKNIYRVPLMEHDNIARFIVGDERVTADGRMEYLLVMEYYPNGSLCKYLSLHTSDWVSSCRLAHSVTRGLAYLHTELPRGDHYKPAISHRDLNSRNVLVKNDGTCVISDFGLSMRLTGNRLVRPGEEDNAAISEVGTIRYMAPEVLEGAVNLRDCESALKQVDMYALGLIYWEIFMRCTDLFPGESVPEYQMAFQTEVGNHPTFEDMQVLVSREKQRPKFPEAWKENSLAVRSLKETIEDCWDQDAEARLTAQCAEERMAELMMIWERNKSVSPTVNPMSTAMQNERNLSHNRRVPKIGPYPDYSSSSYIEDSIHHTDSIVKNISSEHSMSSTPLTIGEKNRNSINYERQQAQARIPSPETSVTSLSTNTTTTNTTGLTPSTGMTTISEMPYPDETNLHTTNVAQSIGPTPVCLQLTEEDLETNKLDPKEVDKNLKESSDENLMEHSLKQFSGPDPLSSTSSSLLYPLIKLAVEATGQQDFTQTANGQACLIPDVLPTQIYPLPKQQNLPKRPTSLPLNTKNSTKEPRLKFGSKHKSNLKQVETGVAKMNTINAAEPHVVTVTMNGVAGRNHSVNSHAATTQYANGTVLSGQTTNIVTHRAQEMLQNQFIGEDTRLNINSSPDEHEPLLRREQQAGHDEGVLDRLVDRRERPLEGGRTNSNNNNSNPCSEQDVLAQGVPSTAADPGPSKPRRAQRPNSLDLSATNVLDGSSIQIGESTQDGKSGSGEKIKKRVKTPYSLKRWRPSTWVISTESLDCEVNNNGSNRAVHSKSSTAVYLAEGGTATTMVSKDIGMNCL

MEK1 = MEK1 (Homo sapiens, UniProt Q02750); settings: 0.1 µM; binder
Sequence of MEK1 (Q02750 whole entry): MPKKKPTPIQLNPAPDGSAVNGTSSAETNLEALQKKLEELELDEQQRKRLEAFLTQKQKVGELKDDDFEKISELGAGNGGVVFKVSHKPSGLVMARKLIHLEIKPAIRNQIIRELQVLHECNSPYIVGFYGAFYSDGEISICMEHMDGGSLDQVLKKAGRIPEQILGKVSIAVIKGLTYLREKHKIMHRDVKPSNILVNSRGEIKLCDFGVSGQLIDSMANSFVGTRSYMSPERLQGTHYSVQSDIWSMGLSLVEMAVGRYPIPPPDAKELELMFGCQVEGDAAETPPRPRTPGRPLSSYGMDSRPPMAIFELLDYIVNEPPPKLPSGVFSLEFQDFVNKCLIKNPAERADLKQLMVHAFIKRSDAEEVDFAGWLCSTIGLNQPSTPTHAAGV

PIK4CB = PIK4CB (Homo sapiens, UniProt Q9UBF8); settings: 0.1 µM; binder
CDK3 = CDK3 (Homo sapiens, UniProt Q00526); settings: 0.1 µM; binder
IRAK4 = IRAK4 (Homo sapiens, UniProt Q9NWZ3); settings: 0.1 µM; binder
FAK = FAK (Homo sapiens, UniProt Q05397); settings: 0.1 µM; binder
EPHA6 = EPHA6 (Homo sapiens, UniProt Q9UF33); settings: 0.1 µM; binder
ALK = ALK (Homo sapiens, UniProt Q9UM73); settings: 0.1 µM; binder
EGFR(L858R,T790M) = EGFR(L858R,T790M) (Homo sapiens, UniProt P00533, L858R/T790M); settings: 0.1 µM; binder
CLK3 = CLK3 (Homo sapiens, UniProt P49761); settings: 0.1 µM; binder
CDC2L1 = CDC2L1 (Homo sapiens, UniProt P21127); settings: 0.1 µM; binder
CLK2 = CLK2 (Homo sapiens, UniProt P49760); settings: 0.1 µM; binder
CSF1R = CSF1R (Homo sapiens, UniProt P07333); settings: 0.1 µM, binder
Sequence of CSF1R (P07333 whole entry): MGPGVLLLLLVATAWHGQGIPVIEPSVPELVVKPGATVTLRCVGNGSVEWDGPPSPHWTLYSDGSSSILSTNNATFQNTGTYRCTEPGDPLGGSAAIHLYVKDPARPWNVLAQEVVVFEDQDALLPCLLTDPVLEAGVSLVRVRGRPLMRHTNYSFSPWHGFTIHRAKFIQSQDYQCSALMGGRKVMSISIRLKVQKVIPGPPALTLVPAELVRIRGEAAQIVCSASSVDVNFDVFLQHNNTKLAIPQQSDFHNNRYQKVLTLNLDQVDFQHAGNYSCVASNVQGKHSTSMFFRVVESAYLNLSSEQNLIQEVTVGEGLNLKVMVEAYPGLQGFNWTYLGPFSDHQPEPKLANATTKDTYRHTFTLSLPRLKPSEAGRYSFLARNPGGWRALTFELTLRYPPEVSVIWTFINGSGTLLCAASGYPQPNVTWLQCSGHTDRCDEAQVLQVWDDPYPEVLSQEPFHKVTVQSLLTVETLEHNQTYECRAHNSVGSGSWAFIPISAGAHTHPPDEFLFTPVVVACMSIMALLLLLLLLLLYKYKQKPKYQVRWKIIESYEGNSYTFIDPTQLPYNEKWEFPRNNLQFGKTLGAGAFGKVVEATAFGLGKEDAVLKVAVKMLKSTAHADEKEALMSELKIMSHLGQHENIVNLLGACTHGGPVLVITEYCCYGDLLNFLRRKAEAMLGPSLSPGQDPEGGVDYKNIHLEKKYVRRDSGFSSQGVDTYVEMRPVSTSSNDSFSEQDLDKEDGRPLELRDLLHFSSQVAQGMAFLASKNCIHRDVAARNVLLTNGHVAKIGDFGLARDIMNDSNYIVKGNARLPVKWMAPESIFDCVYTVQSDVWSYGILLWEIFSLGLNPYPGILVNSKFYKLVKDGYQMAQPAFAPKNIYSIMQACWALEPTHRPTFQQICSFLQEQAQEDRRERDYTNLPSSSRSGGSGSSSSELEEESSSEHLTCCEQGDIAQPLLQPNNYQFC

NEK7 = NEK7 (Homo sapiens, UniProt Q8TDX7); settings: 0.1 µM; binder
MAP4K3 = MAP4K3 (Homo sapiens, UniProt Q8IVH8); settings: 0.1 µM; binder
TIE2 = TIE2 (Homo sapiens, UniProt Q02763); settings: 0.1 µM; binder
PCTK1 = PCTK1 (Homo sapiens, UniProt Q00536); settings: 0.1 µM; binder

**Q.** What does the source list for `CNc1ncc2cc(-c3ccc(-c4cccc(C)n4)cc3Cl)c(=O)n(C[C@H]3OC[C@H](N)CO3)c2n1` [compound 6, G-5555]?
**A.** Percent Control (EGFR(L861Q)): 100%; Percent Control (RAF1): 100%; Percent Control (BMPR1B): 95%; Percent Control (MYO3A): 100%; Percent Control (ULK1): 100%; Percent Control (MST3): 15%; Percent Control (ERBB3): 77%; Percent Control (JNK2): 100%; Percent Control (MLK3): 100%; Percent Control (PIK3CB): 100%; Percent Control (BRAF(V600E)): 100%; Percent Control (IGF1R): 100%; Percent Control (MYLK3): 74%; Percent Control (CDK7): 100%; Percent Control (BMPR2): 100%; Percent Control (MEK1): 24%; Percent Control (PIK4CB): 97%; Percent Control (CDK3): 100%; Percent Control (IRAK4): 95%; Percent Control (FAK): 98%; Percent Control (EPHA6): 100%; Percent Control (ALK): 89%; Percent Control (EGFR(L858R,T790M)): 100%; Percent Control (CLK3): 100%; Percent Control (CDC2L1): 100%; Percent Control (CLK2): 100%; Percent Control (CSF1R): 89%; Percent Control (CSF1R; autoinhibited): 97%; Percent Control (NEK7): 100%; Percent Control (MAP4K3): 85%; Percent Control (TIE2): 87%; Percent Control (PCTK1): 100%
